Laboratory results: paper PMC2972509 (Journal of medicinal chemistry, 2010)
“And” between values parts separate entries of the source, which are not always exact repeats. Equal values may be shown once. “Also recorded” adds a separate entry of the source.

Legend:
dopamine D4 receptor = molecular target: T1, dopamine D4 receptor (Rattus norvegicus, UniProt P30729); assay: Radioligand competition binding at cloned dopamine D4 receptor; settings: for D4 Ki, nM ± SEM: [3H]MSP, cloned rat D4 receptor in HEK293 membranes; for Selectivity for D4 over off-target receptors: over D2, D3, 5-HT1A, 5-HT2A, 5-HT2C and sigma1 receptors
T1 sequence (P30729 1-387): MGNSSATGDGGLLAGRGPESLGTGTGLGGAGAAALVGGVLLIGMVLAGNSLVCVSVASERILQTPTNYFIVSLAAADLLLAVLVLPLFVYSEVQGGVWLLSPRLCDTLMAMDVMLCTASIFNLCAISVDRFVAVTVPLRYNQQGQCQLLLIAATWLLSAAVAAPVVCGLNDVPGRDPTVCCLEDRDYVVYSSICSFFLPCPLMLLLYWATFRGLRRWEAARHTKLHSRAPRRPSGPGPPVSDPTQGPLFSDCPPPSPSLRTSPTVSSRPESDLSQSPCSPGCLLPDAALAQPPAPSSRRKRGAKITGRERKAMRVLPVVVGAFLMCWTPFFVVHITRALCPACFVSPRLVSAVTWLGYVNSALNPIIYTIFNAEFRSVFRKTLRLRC

[1] = molecular target: T2, cloned D4 dopamine receptor (Rattus norvegicus, UniProt P30729); assay: D4 receptor functional assay: decrease in forskolin-stimulated cAMP accumulation; assay type: cell-based; settings: Gi/o-mediated
T2 sequence (P30729 1-387): T1 sequence (P30729 1-387)

[2] = Preliminary disposition studies in mice; assay type: in vivo; settings: for Tmax: male, CD1, mouse, plasma, ip; for Maximum brain concentration (mean ± SD) / Maximum plasma concentration (mean ± SD): parent compound, 7 after 30 min, 13 after 15 min

SMILES	D4 Ki, nM ± SEM (dopamine D4 receptor)	Selectivity for D4 over off-target receptors (dopamine D4 receptor) [fold]	Functional property at D4 receptor [1]	Tmax ([2]; 10 mg/kg) [min]	Time up to which plasma concentrations were consistently detected ([2]; mice, 10 mg/kg i.p.)	Time up to which quantifiable brain levels were consistently evident ([2]; mice, 10 mg/kg i.p.)	Maximum brain concentration (mean ± SD) ([2]; mice, 10 mg/kg i.p.) [µg/g]	Maximum plasma concentration (mean ± SD) ([2]; mice, 10 mg/kg i.p., 10 mg/kg)	Fold higher D4 affinity than the 3-methoxy analog 5 (dopamine D4 receptor)	Time of mean brain Cmax ([2]; mice, 10 mg/kg i.p.) [min]	Plasma concentration after 30 minutes (below limit of quantitation) ([2]; mice, 10 mg/kg i.p., 0.2 ml plasma)	Maximum plasma concentration (mean ± SD) ([2]; mice, 10 mg/kg i.p.) [µg/mL]
COc1cccc(C(=O)NCCN2CCN(c3ncccc3C#N)CC2)c1 [Compound 7, N-[2-[4-(3-Cyanopyridin-2-yl)piperazin-1-yl]ethyl]-3-methoxybenzamide]	nanomolar affinity	> 100	agonist properties; also recorded: agonists	30	up to 60 minutes	up to 30 min	0.14 ± 0.02	0.37 ± 0.02 µg/mL and 0.37 ± 0.21 µg/mL	–	–	–	–
O=C(NCCN1CCN(c2noc3ccccc23)CC1)c1ccc(F)cc1 [Compound 11, N-[2-[4-(1,2-Benzisoxazol-3-yl)piperazin-1-yl]ethyl]-4-fluorobenzamide]	subnanomolar	–	–	–	–	–	–	–	approximately 6 fold	–	–	–
N#Cc1cccnc1N1CCN(CCNC(=O)c2ccc(F)cc2)CC1 [Compound 13, N-[2-[4-(3-Cyanopyridin-2-yl)piperazin-1-yl]ethyl]-4-fluorobenzamide]	subnanomolar; also recorded: nanomolar affinity	> 100	agonist properties; also recorded: agonists	15	–	up to 60 min	0.47 ± 0.20	–	–	15	less than 0.1 µg/mL	0.13 ± 0.10
